Where two headings read alike, the source gives them in different places.

The target in assay [1] is recombinant human Mcl-1 (residues 171-327) / Bim interaction (Homo sapiens (Human), UniProt Q07820). Description: biochemical. Format: binding. Conditions: read-out: Mcl-1 HTRF IC50.
The test system of assay [2] is human multiple myeloma cell line, OPM-2. Briefly: Cell viability assay (OPM-2 10 FBS), CellTiter-Glo. Format: cell-based. In short, it runs like this:
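OPM-2 cells at 3000 cells/well in RPMI 1640 with 10% FBS were exposed to serially diluted compounds for 16 h at 37 °C, 5% CO2.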
A general note: Cellular ATP, detected with luciferase, serves as a proxy for viable cell number.

The mark [3] stands for this setting: TR-FRET, Mcl-1(171-327) / biotin-Bim (51-76).
[4] abbreviates: read-out: OPM-2 10% FBS IC50 IP, OPM-2 cells, 10% FBS, 16 h, CellTiter-Glo.
Where [5] appears, read: Homo sapiens, OPM-2, 16 h, read-out: OPM-2 10% FBS IC50 IP, OPM-2 cells, 10% FBS, 16 h, CellTiter-Glo.
[6] abbreviates: 0.1 nM Mcl-1(171-327), 0.05 nM biotin-Bim (51-76).
Setting [7] is: read-out: OPM-2 10% FBS IC50 IP, OPM-2 cells, 10% FBS, 16 h incubation.
[8] abbreviates: Homo sapiens, OPM-2, 16 h, read-out: OPM-2 10% FBS IC50 IP, OPM-2 cells, 10% FBS, 16 h incubation.

Sequence of recombinant human Mcl-1 (residues 171-327) / Bim interaction (Q07820 171-327): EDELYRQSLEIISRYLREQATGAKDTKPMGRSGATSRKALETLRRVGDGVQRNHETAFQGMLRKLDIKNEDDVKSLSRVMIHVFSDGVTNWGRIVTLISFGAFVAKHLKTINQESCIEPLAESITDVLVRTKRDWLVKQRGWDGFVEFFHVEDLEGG

Consider `C[C@@H]1[C@@H](C)C/C=C/[C@@](O)(CCCO)[C@@H]2CC[C@H]2CN2C[C@@]3(CCCc4cc(Cl)ccc43)COc3ccc(cc32)C(=O)NS1(=O)=O` [Example 100148, (1S,3′R,6′R,7′S,8′E,11′S,12′R)-6-chloro-7′-hydroxy-7′-(3-hydroxypropyl)-11′,12′-dimethyl-3,4-dihydro-2H,15′H-spiro[naphthalene-1,22′-[20]oxa[13]thia[1,14]diazatetracyclo [14.7.2.0~3,6~.0~19,24~]pentacosa[8,16,18,24]tetraen]-15′-one 13′,13′-dioxide], for which the IC50 stood at 0.113 nM in assay [1] (setting [3]) and 239 nM in assay [2] (setting [4]).

On to `CO[C@@]1(CCN2CC(C)(N(C)C)C2)/C=C/C[C@H](C)[C@@H](C)S(=O)(=O)NC(=O)c2ccc3c(c2)N(C[C@@H]2CC[C@H]21)C[C@@]1(CCCc2cc(Cl)ccc21)CO3` [Example 100431, (1S,3′R,6′R,7′S,8′E,11′S,12′R)-6-chloro-7′-(2-(3-(dimethylamino)-3-methyl-1-azetidinyl)ethyl)-7′-methoxy-11′,12′-dimethyl-3,4-dihydro-2H,15′H-spiro[naphthalene-1,22′-[20]oxa[13]thia[1,14]diazatetracyclo [14.7.2.0~3,6~.0~19,24~]pentacosa[8,16,18,24]tetraen]-15′-one 13′,13′-dioxide], for which the IC50 in assay [1] (setting [3]) was determined as 0.043 nM; in assay [2] (setting [5]), 290 nM.

On to `C[C@@H]1[C@@H](C)CCC[C@](C)([C@H]2OC[C@@H](N(C)C)CO2)[C@@H]2CC[C@H]2CN2C[C@@]3(CCCc4cc(Cl)ccc43)COc3ccc(cc32)C(=O)NS1(=O)=O` [Example 100328, (1S,3′R,6′R,7′S,11′S,12′R)-6-chloro-7′-(cis-5-(dimethylamino)-1,3-dioxan-2-yl)-7′,11′,12′-trimethyl-3,4-dihydro-2H,15′H-spiro[naphthalene-1,22′-[20]oxa[13]thia[1,14]diazatetracyclo [14.7.2.0~3,6~.0~19,24~]pentacosa[16,18,24]trien]-15′-one 13′,13′-dioxide], for which the figures for the IC50 in assay [1] (setting [3]) and in assay [2] (setting [5]) were 0.261 nM and 180 nM, respectively.

Consider `CO[C@@]1(CC(=O)NCCCl)/C=C/C[C@H](C)[C@@H](C)S(=O)(=O)NC(=O)c2ccc3c(c2)N(C[C@@H]2CC[C@H]21)C[C@@]1(CCCc2cc(Cl)ccc21)CO3` [Example 100509, N-(2-chloroethyl)-2-((1S,3′R,6′R,7′S,8′E,11′S,12′R)-6-chloro-7′-methoxy-11′,12′-dimethyl-13′,13′-dioxido-15′-oxo-3,4-dihydro-2H-spiro[naphthalene-1,22′-[20]oxa[13]thia[1,14]diazatetracyclo [14.7.2.0~3,6~.0~19,24~]pentacosa[8,16,18,24]tetraen]-7′-yl)acetamide], for which the figures for the IC50 in assay [1] (setting [3]) and in assay [2] (setting [5]) were 0.057 nM and 361 nM, respectively.

Consider `CO[C@@]1(CN2CCN3CCN(C(C)C)C[C@@H]3C2)/C=C/C[C@H](C)[C@@H](C)S(=O)(=O)NC(=O)c2ccc3c(c2)N(C[C@@H]2CC[C@H]21)C[C@@]1(CCCc2cc(Cl)ccc21)CO3` (single isomer, unassigned) [Example 240], for which the IC50 came to 0.128 nM in assay [1] (setting [6]) and 141 nM in assay [2] (setting [7]).

Turning to “(1 S,3′R,6′R,7′S,8′E, 11′S,12′R)-6-chloro-11′,12′-dimethyl-7′-(2-methylpropoxy)-7′-((4-(3-oxetanyl)-1-piperazinyl)methyl)-3,4-dihydro-2H,15′H-spiro[naphthalene-1,22′-[20]oxa[13]thia[1,14]diazatetracyclo[14.7.2.0-3,6˜.0˜19,24˜]pentacosa[8,16,18,24]tetraen]-15′-one 13′,13′-dioxide [Example 348]”, the figures for the IC50 in assay [1] (setting [6]) and in assay [2] (setting [7]) were 2.62 nM and 5360 nM, respectively.

As for `C[C@@H]1[C@@H](C)C/C=C/[C@@](O)(CC#N)[C@@H]2CC[C@H]2CN2C[C@@]3(CCCc4cc(Cl)ccc43)COc3ccc(cc32)C(=O)NS1(=O)=O` [Example 100051, ((1S,3′R,6′R,7′S,8′E,11′S,12′R)-6-chloro-7′-hydroxy-11′,12′-dimethyl-13′,13′-dioxido-15′-oxo-3,4-dihydro-2H-spiro[naphthalene-1,22′-[20]oxa[13]thia[1,14]diazatetracyclo [14.7.2.0~3,6~.0~19,24~]pentacosa[8,16,18,24]tetraen]-7′-yl)acetonitrile], the IC50 in assay [1] amounted to 0.217 nM; in assay [2] (setting [4]), 502 nM.

For `CO[C@]1(CN2CCN3CCOC[C@@H]3C2)/C=C/C[C@H](C)[C@@H](C)S(=O)(=O)NC(=O)c2ccc3c(n2)N(C[C@@H]2CC[C@H]21)C[C@@]1(CCCc2cc(Cl)ccc21)CO3` [Example 185, (1S,3′R,6′R,7′R,8′E,11′S,12′R)-6-chloro-7′-((9aS)-hexahydropyrazino[2,1-c][1,4]oxazin-8(1H)-ylmethyl)-7′-methoxy-11′,12′-dimethyl-3,4-dihydro-2H,15′H-spiro[naphthalene-1,22′-[20]oxa[13]thia[1,14,25]triazatetracyclo [14.7.2.0~3,6~.0~19,24~]pentacosa[8,16,18,24]tetraen]-15′-one 13′,13′-dioxide], the IC50 came to 0.17 nM in assay [1] (setting [6]) and 1060 nM in assay [2] (setting [8]).

Regarding `CO[C@@]1(CN2CCN(CC3COC3)CC2)/C=C/C[C@H](C)[C@@H](C)S(=O)(=O)NC(=O)c2ccc3c(c2)N(C[C@@H]2CC[C@H]21)C[C@@]1(CCCc2cc(Cl)ccc21)CO3` [Example 313, (1S,3′R,6′R,7′S,8′E,11′S,12′R)-6-chloro-7′-methoxy-11′,12′-dimethyl-7′-((4-(3-oxetanylmethyl)-1-piperazinyl)methyl)-3,4-dihydro-2H,15′H-spiro[naphthalene-1,22′-[20]oxa[13]thia[1,14]diazatetracyclo [14.7.2.0~3,6~.0~19,24~]pentacosa[8,16,18,24]tetraen]-15′-one 13′,13′-dioxide], the values for the IC50 in assay [1] (setting [6]) and in assay [2] (setting [8]) were 0.225 nM and 131 nM, respectively.

Take `C[C@@H]1[C@@H](C)C/C=C/[C@](O)(Cc2nccs2)[C@@H]2CC[C@H]2CN2C[C@@]3(CCCc4cc(Cl)ccc43)COc3ccc(cc32)C(=O)NS1(=O)=O` [Example 100246, (1S,3′R,6′R,7′R,8′E,11′S,12′R)-6-chloro-7′-hydroxy-11′,12′-dimethyl-7′-(1,3-thiazol-2-ylmethyl)-3,4-dihydro-2H,15′H-spiro[naphthalene-1,22′-[20]oxa[13]thia[1,14]diazatetracyclo [14.7.2.0~3,6~.0~19,24~]pentacosa[8,16,18,24]tetraen]-15′-one 13′,13′-dioxide]: the IC50 was determined as 0.326 nM in assay [1] and 114 nM in assay [2] (setting [4]).

In the case of `C[C@@H]1[C@@H](C)CCC[C@](O)(CC(=O)O)[C@@H]2CC[C@H]2CN2C[C@@]3(CCCc4cc(Cl)ccc43)COc3ccc(cc32)C(=O)NS1(=O)=O` [Example 100097, ((1S,3′R,6′R,7′S,11′S,12′R)-6-chloro-7′-hydroxy-11′,12′-dimethyl-13′,13′-dioxido-15′-oxo-3,4-dihydro-2H-spiro[naphthalene-1,22′-[20]oxa[13]thia[1,14]diazatetracyclo [14.7.2.0~3,6~.0~19,24~]pentacosa[16,18,24]trien]-7′-yl)acetic acid], the IC50 in assay [1] (setting [3]) came to 0.081 nM; in assay [2] (setting [5]), 5230 nM.

Turning to `C[C@@H]1[C@@H](C)CCC[C@@](O)(CS(=O)(=O)N2CCN(C)CC2)[C@@H]2CC[C@H]2CN2C[C@@]3(CCCc4cc(Cl)ccc43)COc3ccc(cc32)C(=O)NS1(=O)=O` [Example 100138, (1S,3′R,6′R,7′S,11′S,12′R)-6-chloro-7′-hydroxy-11′,12′-dimethyl-7′-(((4-methyl-1-piperazinyl)sulfonyl)methyl)-3,4-dihydro-2H,15′H-spiro[naphthalene-1,22′-[20]oxa[13]thia[1,14]diazatetracyclo [14.7.2.0~3,6~.0~19,24~]pentacosa[16,18,24]trien]-15′-one 13′,13′-dioxide], the IC50 in assay [1] (setting [3]) was 0.549 nM; in assay [2] (setting [4]) it was 342 nM.

As for `C/C=C/C[C@]1(OC)/C=C/C[C@H](C)[C@@H](C)S(=O)(=O)NC(=O)c2ccc3c(c2)N(C[C@@H]2CC[C@H]21)C[C@@]1(CCCc2cc(Cl)ccc21)CO3` [Example 100438, (1S,3′R,6′R,7′S,8′E,11′S,12′R)-7′-((2E)-2-buten-1-yl)-6-chloro-7′-methoxy-11′,12′-dimethyl-3,4-dihydro-2H,15′H-spiro[naphthalene-1,22′-[20]oxa[13]thia[1,14]diazatetracyclo [14.7.2.0~3,6~.0~19,24~]pentacosa[8,16,18,24]tetraen]-15′-one 13′,13′-dioxide], the 50% inhibitory concentration (IC50) worked out at 0.169 nM in assay [1] (setting [3]) and 547 nM in assay [2] (setting [5]).

On to `CO[C@]1(Cc2noc(C)c2C)/C=C/C[C@H](C)[C@@H](C)S(=O)(=O)NC(=O)c2ccc3c(c2)N(C[C@@H]2CC[C@H]21)C[C@@]1(CCCc2cc(Cl)ccc21)CO3` [Example 100574, (1S,3′R,6′R,7′R,8′E,11′S,12′R)-6-chloro-7′-((4,5-dimethyl-1,2-oxazol-3-yl)methyl)-7′-methoxy-11′,12′-dimethyl-3,4-dihydro-2H,15′H-spiro[naphthalene-1,22′-[20]oxa[13]thia[1,14]diazatetracyclo [14.7.2.0~3,6~.0~19,24~]pentacosa[8,16,18,24]tetraen]-15′-one 13′,13′-dioxide], for which the results for the IC50 in assay [1] (setting [3]) and in assay [2] (setting [5]) were 1.42 nM and 4320 nM, respectively.

The IC50 is the midpoint of a concentration-inhibition curve.

The record behind these values is patent publication US10821115B2, “Compounds that inhibit Mcl-1 protein” (priority 2017, dated 2020).
